Measured values from ChEMBL document CHEMBL3044888, “Fungicidal activity of indole derivatives against some plant pathogenic fungi” (J Pestic Sci, 2010).
Converted amounts (≈) assume the structure as drawn.

Experiments:
[1] = test system: Macrophomina phaseolina; experiment: In vivo effect on peroxidase activity in Macrophomina phaseoli assessed as DNA content at 0.25 times of IC50 concentration (reference value: 15.5 +/- 0.5 mg/l); assay type: functional
[2] = test system: Macrophomina phaseolina; experiment: In vivo effect on peroxidase activity in Macrophomina phaseoli assessed as RNA content at 2 times of IC50 concentration (reference value: 16.1 +/- 0.4 mg/l); assay type: functional
[3] = test system: Macrophomina phaseolina; experiment: In vivo effect on peroxidase activity in Macrophomina phaseoli assessed as RNA content at 1 times of IC50 concentration (reference value: 16.1 +/- 0.4 mg/l); assay type: functional
[4] = test system: Macrophomina phaseolina; experiment: In vivo effect on peroxidase activity in Macrophomina phaseoli assessed as RNA content at 0.5 times of IC50 concentration (reference value: 16.1 +/- 0.4 mg/l); assay type: functional
[5] = test system: Macrophomina phaseolina; experiment: In vivo effect on peroxidase activity in Macrophomina phaseoli assessed as RNA content at 0.25 times of IC50 concentration (reference value: 16.1 +/- 0.4 mg/l); assay type: functional
[6] = test system: Rhizoctonia solani; experiment: In vivo effect on peroxidase activity in Rhizoctonia solani assessed as total soluble sugar content per gram of dry hyphal at 0.5 times of IC50 concentration (reference value: 20.1 +/- 0.8 mg/g of dry weight); assay type: functional
[7] = test system: Macrophomina phaseolina; experiment: In vivo effect on peroxidase activity in Macrophomina phaseoli assessed as reduced sugar content per gram of dry hyphal at 0.25 times of IC50 concentration (reference value: 7.3 +/- 0.5 mg/g of dry weight); assay type: functional
[8] = test system: Macrophomina phaseolina; experiment: In vivo effect on peroxidase activity in Macrophomina phaseoli assessed as reduced sugar content per gram of dry hyphal at 0.1 times of IC50 concentration (reference value: 7.3 +/- 0.5 mg/g of dry weight); assay type: functional
[9] = test system: Rhizoctonia solani; experiment: In vivo effect on peroxidase activity in Rhizoctonia solani assessed as DNA content at 2 times of IC50 concentration (reference value: 24 +/- 0.7 mg/l); assay type: functional
[10] = test system: Rhizoctonia solani; experiment: In vivo effect on peroxidase activity in Rhizoctonia solani assessed as DNA content at 1 times of IC50 concentration (reference value: 24 +/- 0.7 mg/l); assay type: functional
[11] = test system: Rhizoctonia solani; experiment: In vivo effect on peroxidase activity in Rhizoctonia solani assessed as DNA content at 0.5 times of IC50 concentration (reference value: 24 +/- 0.7 mg/l); assay type: functional
[12] = test system: Rhizoctonia solani; experiment: In vivo effect on peroxidase activity in Rhizoctonia solani assessed as DNA content at 0.25 times of IC50 concentration (reference value: 24 +/- 0.7 mg/l); assay type: functional
[13] = test system: Rhizoctonia solani; experiment: In vivo effect on peroxidase activity in Rhizoctonia solani assessed as DNA content at 0.1 times of IC50 concentration (reference value: 24 +/- 0.7 mg/l); assay type: functional
[14] = test system: Rhizoctonia solani; experiment: In vivo effect on peroxidase activity in Rhizoctonia solani assessed as RNA content at 1 times of IC50 concentration (reference value: 25 +/- 0.7 mg/l); assay type: functional
[15] = test system: Rhizoctonia solani; experiment: In vivo effect on peroxidase activity in Rhizoctonia solani assessed as RNA content at 0.25 times of IC50 concentration (reference value: 25 +/- 0.7 mg/l); assay type: functional
[16] = test system: Rhizoctonia solani; experiment: In vivo effect on peroxidase activity in Rhizoctonia solani assessed as RNA content at 0.1 times of IC50 concentration (reference value: 25 +/- 0.7 mg/l); assay type: functional
[17] = test system: Globisporangium debaryanum; experiment: In vivo effect on peroxidase activity in Pythium debaryanum assessed as DNA content at 2 times of IC50 concentration (reference value: 31 +/- 0.8 mg/l); assay type: functional
[18] = test system: Globisporangium debaryanum; experiment: In vivo effect on peroxidase activity in Pythium debaryanum assessed as DNA content at 1 times of IC50 concentration (reference value: 31 +/- 0.8 mg/l); assay type: functional
[19] = test system: Globisporangium debaryanum; experiment: In vivo effect on peroxidase activity in Pythium debaryanum assessed as RNA content at 2 times of IC50 concentration (reference value: 32.2 +/- 0.7 mg/l); assay type: functional
[20] = test system: Globisporangium debaryanum; experiment: In vivo effect on peroxidase activity in Pythium debaryanum assessed as RNA content at 0.5 times of IC50 concentration (reference value: 32.2 +/- 0.7 mg/l); assay type: functional
[21] = test system: Rhizoctonia solani; experiment: In vivo effect on peroxidase activity in Rhizoctonia solani assessed as reduced sugar content per gram of dry hyphal at 1 times of IC50 concentration (reference value: 17.3 +/- 1 mg/g of dry weight); assay type: functional
[22] = test system: Rhizoctonia solani; experiment: In vivo effect on peroxidase activity in Rhizoctonia solani assessed as reduced sugar content per gram of dry hyphal at 0.1 times of IC50 concentration (reference value: 17.3 +/- 1 mg/g of dry weight); assay type: functional
[23] = test system: Macrophomina phaseolina; experiment: In vivo effect on peroxidase activity in Macrophomina phaseoli assessed as total soluble sugar content per gram of dry hyphal at 1 times of IC50 concentration (reference value: 19.3 +/- 0.7 mg/g of dry weight); assay type: functional
[24] = test system: Macrophomina phaseolina; experiment: In vivo effect on peroxidase activity in Macrophomina phaseoli assessed as total soluble sugar content per gram of dry hyphal at 0.25 times of IC50 concentration (reference value: 19.3 +/- 0.7 mg/g of dry weight); assay type: functional
[25] = test system: Macrophomina phaseolina; experiment: In vivo effect on peroxidase activity in Macrophomina phaseoli assessed as total soluble sugar content per gram of dry hyphal at 0.1 times of IC50 concentration (reference value: 19.3 +/- 0.7 mg/g of dry weight); assay type: functional
[26] = test system: Fusarium culmorum; experiment: In vivo effect on peroxidase activity in Fusarium culmorum assessed as DNA content at 1 times of IC50 concentration (reference value: 49.5 +/- 1.6 mg/l); assay type: functional
[27] = test system: Fusarium culmorum; experiment: In vivo effect on peroxidase activity in Fusarium culmorum assessed as DNA content at 0.5 times of IC50 concentration (reference value: 49.5 +/- 1.6 mg/l); assay type: functional
[28] = test system: Fusarium culmorum; experiment: In vivo effect on peroxidase activity in Fusarium culmorum assessed as DNA content at 0.25 times of IC50 concentration (reference value: 49.5 +/- 1.6 mg/l); assay type: functional
[29] = test system: Fusarium culmorum; experiment: In vivo effect on peroxidase activity in Fusarium culmorum assessed as RNA content at 0.5 times of IC50 concentration (reference value: 51.5 +/- 1.5 mg/l); assay type: functional
[30] = test system: Fusarium culmorum; experiment: In vivo effect on peroxidase activity in Fusarium culmorum assessed as RNA content at 1 times of IC50 concentration (reference value: 51.5 +/- 1.5 mg/l); assay type: functional
[31] = test system: Fusarium culmorum; experiment: In vivo effect on peroxidase activity in Fusarium culmorum assessed as RNA content at 0.1 times of IC50 concentration (reference value: 51.5 +/- 1.5 mg/l); assay type: functional
[32] = test system: Globisporangium debaryanum; experiment: Inhibition of peroxidase activity in Pythium debaryanum at 0.5 times of IC50 concentration
[33] = test system: Fusarium culmorum; experiment: Inhibition of peroxidase activity in Fusarium culmorum at 0.25 times of IC50 concentration
[34] = Inhibition of polyphenoloxidase activity in Macrophomina phaseoli; parameters: species or system Macrophomina phaseolina
[35] = test system: Globisporangium debaryanum; experiment: Fungicidal activity against Pythium debaryanum assessed as inhibition of hyphal growth by radial growth test; assay type: functional, organism-based
[36] = test system: Fusarium culmorum; experiment: Inhibition of peroxidase activity in Fusarium culmorum at 0.5 times of IC50 concentration

| SMILES | Activity [1] [mg/L] | Activity [2] [mg/L] | Activity [3] [mg/L] | Activity [4] [mg/L] | Activity [5] [mg/L] | Activity [6] [mg] | Activity [7] [mg] | Activity [8] [mg] | Activity [9] [mg/L] | Activity [10] [mg/L] | Activity [11] [mg/L] | Activity [12] [mg/L] | Activity [13] [mg/L] | Activity [14] [mg/L] | Activity [15] [mg/L] | Activity [16] [mg/L] | Activity [17] [mg/L] | Activity [18] [mg/L] | Activity [19] [mg/L] | Activity [20] [mg/L] | further results |
| --- | --- | --- | --- | --- | --- | --- | --- | --- | --- | --- | --- | --- | --- | --- | --- | --- | --- | --- | --- | --- | --- |
| CC(=O)n1c(-c2ccccc2)cc2ccccc21 | 10.3 | 6.7 | 8.5 | 8.6 | 10.6 | 6 | 14.8 | 2.5 | 34.7 | 31.4 | 26.6 | 25.2 | 23.2 | 32.6 | 26.2 | 23.6 | 21.6 | 17.5 | 22.5 | 11.8 | Activity [21]: 2.6 mg; Activity [22]: 9.7 mg; Activity [23]: 34.7 mg; Activity [24]: 22.2 mg; Activity [25]: 4.2 mg; Activity [26]: 27.2 mg/L; Activity [27]: 28 mg/L; Activity [28]: 29.9 mg/L; Activity [29]: 29.2 mg/L; Activity [30]: 28.3 mg/L; Activity [31]: 45.4 mg/L; inhibition [32]: 1.3%; inhibition [33]: 23.7%; IC50 [34]: 80.2 µg/mL (≈ 341 µM); IC50 [35]: 15 µg/mL (≈ 63.8 µM); inhibition [36]: -7.9% |
| c1ccc(-c2cc3ccccc3[nH]2)cc1 [2-PHENYL-1H-INDOLE] | 6.8 | 5.9 | 6.3 | 8.3 | 7.2 | 19.1 | 4.6 | 6.3 | 27 | 30.9 | 29.6 | 28.9 | 28.3 | 32.2 | 30 | 29.4 | 23.3 | 29.4 | 24.2 | 11.4 | Activity [21]: 7.7 mg; Activity [22]: 44.3 mg; Activity [23]: 7.1 mg; Activity [24]: 9.7 mg; Activity [25]: 8.7 mg; Activity [26]: 25.3 mg/L; Activity [27]: 18 mg/L; Activity [28]: 23.7 mg/L; Activity [29]: 18.7 mg/L; Activity [30]: 26.3 mg/L; Activity [31]: 29.7 mg/L; inhibition [32]: 0%; inhibition [33]: 26.2%; IC50 [34]: 117.1 µg/mL (≈ 606 µM); IC50 [35]: 17.7 µg/mL (≈ 91.6 µM); inhibition [36]: 53.8% |
